Legend:
[1] = system: recRSV-A2-L19FD489E-fireSMASh; type: cell-based, respiratory syncytial virus; conditions: for antiviral (anti-RSV) activity in words: SAR discussion
[2] = Metabolic stability in mouse liver S9 fractions; type: in vitro ADME
[3] = Metabolic stability in mouse liver microsomes; type: in vitro ADME; conditions: without cofactors, 2 hours
RSV = conditions: orally available; phase II clinical trials; cited from earlier work

Compound | antiviral (anti-RSV) activity in words [1] | other results
Cc1ccoc1C(=O)N1CCCn2nc(S(=O)(=O)Nc3ccccc3)cc2C1 [Compound 8r, 5-(3-Methylfuran-2-carbonyl)-N-phenyl-5,6,7,8-tetrahydro-4H-pyrazolo[1,5-a][1,4]diazepine-2-sulfonamide] | loss of activity | –
Cc1ccoc1C(=O)N1CCCn2nc(C(=O)N(C)c3ccccc3)cc2C1 [Compound 8a, N-methyl-5-(3-methylfuran-2-carbonyl)-N-phenyl-5,6,7,8-tetrahydro-4H-pyrazolo[1,5-a][1,4]diazepine-2-carboxamide] | loss of activity | –
Cc1ccoc1C(=O)N1CCCn2nc(CNc3ccccc3)cc2C1 [Compound 8q, (3-Methylfuran-2-yl)(2-((phenylamino)methyl)-7,8-dihydro-4H-pyrazolo[1,5-a][1,4]diazepin-5(6H)-yl)methanone] | retained sufficient activity | –
Cc1ccn(C)c1C(=O)N1CCCn2nc(C(=O)Nc3ccccc3)cc2C1 [Compound 1e, 5-(1,3-Dimethyl-1H-pyrrole-2-carbonyl)-N-phenyl-5,6,7,8-tetrahydro-4H-pyrazolo[1,5-a][1,4]diazepine-2-carboxamide] | complete loss of potency | –
Cc1cc(C(=O)N2CCCn3nc(C(=O)Nc4ccccc4)cc3C2)oc1C [Compound 1n, 5-(4,5-Dimethylfuran-2-carbonyl)-N-phenyl-5,6,7,8-tetrahydro-4H-pyrazolo[1,5-a][1,4]diazepine-2-carboxamide] | lacked antiviral activity | –
Cc1ccoc1C(=O)N1CCCn2nc(C(=O)Cc3ccccc3)cc2C1 [Compound 8p, 1-(5-(3-Methylfuran-2-carbonyl)-5,6,7,8-tetrahydro-4H-pyrazolo[1,5-a][1,4]diazepin-2-yl)-2-phenylethanone] | retained sufficient activity | improvement in half-life compared to 8g ([2]; mouse S9 subcellular fractions): 2 fold; stability of parent in mouse liver microsomes [3]: parent remained intact
Cc1ccoc1C(=O)N1CCCn2nc(NS(=O)(=O)c3ccccc3)cc2C1 [Compound 8t, N-(5-(3-methylfuran-2-carbonyl)-5,6,7,8-tetrahydro-4H-pyrazolo[1,5-a][1,4]diazepin-2-yl)benzenesulfonamide] | loss of activity | –
CCc1ccoc1C(=O)N1CCCn2nc(C(=O)Nc3ccccc3)cc2C1 [Compound 1k, 5-(3-Ethylfuran-2-carbonyl)-N-phenyl-5,6,7,8-tetrahydro-4H-pyrazolo[1,5-a][1,4]diazepine-2-carboxamide] | negative impacts on the potency | –
Cc1ccsc1C(=O)N1CCCn2nc(C(=O)Nc3ccccc3)cc2C1 [Compound 1c, 5-(3-Methylthiophene-2-carbonyl)-N-phenyl-5,6,7,8-tetrahydro-4H-pyrazolo[1,5-a][1,4]diazepine-2-carboxamide] | complete loss of potency | –
Cc1ccoc1C(=O)N1CCCn2nc(NC(=O)c3ccccc3)cc2C1 [Compound 8s, N-(5-(3-methylfuran-2-carbonyl)-5,6,7,8-tetrahydro-4H-pyrazolo[1,5-a][1,4]diazepin-2-yl)benzamide] | loss of activity | –
Cc1coc(C(=O)N2CCCn3nc(C(=O)Nc4ccccc4)cc3C2)c1 [Compound 1o, 5-(4-Methylfuran-2-carbonyl)-N-phenyl-5,6,7,8-tetrahydro-4H-pyrazolo[1,5-a][1,4]diazepine-2-carboxamide] | loss of activity | –
5-(4-Methylisoxazole-5-carbonyl)-N-phenyl-5,6,7,8-tetrahydro-4H-pyrazolo[1,5-a][1,4]diazepine-2-carboxamide [Compound 1q] | complete loss of potency | –
O=C(Nc1ccccc1)c1cc2n(n1)CCCN(S(=O)(=O)c1ccco1)C2 [Compound 1u, 5-(Furan-2-ylsulfonyl)-N-phenyl-5,6,7,8-tetrahydro-4H-pyrazolo[1,5-a][1,4]diazepine-2-carboxamide] | complete loss of bioactivity | –
Cc1ccoc1C(=O)N1CCCn2nc(C(=O)Nc3ccc(F)cc3Cl)cc2C1 [Compound 8n, N-(2-chloro-4-fluorophenyl)-5-(3-methylfuran-2-carbonyl)-5,6,7,8-tetrahydro-4H-pyrazolo[1,5-a][1,4]diazepine-2-carboxamide] | nanomolar potency | improvement in antiviral potency compared to hit compound 1a [1]: approximately 4 fold
COc1ccc(NC(=O)c2cc3n(n2)CCCN(C(=O)c2occc2C)C3)cc1 [Compound 8l, N-(4-methoxyphenyl)-5-(3-methylfuran-2-carbonyl)-5,6,7,8-tetrahydro-4H-pyrazolo[1,5-a][1,4]diazepine-2-carboxamide] | nanomolar potency | –
Cc1ccoc1C(=O)N1CCCn2nc(C(=O)Nc3ccccc3F)cc2C1 [Compound 8g, N-(2-fluorophenyl)-5-(3-methylfuran-2-carbonyl)-5,6,7,8-tetrahydro-4H-pyrazolo[1,5-a][1,4]diazepine-2-carboxamide] | – | improvement in antiviral potency compared to hit compound 1a [1]: approximately 4 fold; stability with mouse S9 fractions ([2]; in the absence of cofactors): hydrolyzed rapidly
O=C(Nc1ccccc1)c1cc2n(n1)CCCN(C(=O)c1occc1C(F)(F)F)C2 [Compound 1j, N-phenyl-5-(3-(trifluoromethyl)furan-2-carbonyl)-5,6,7,8-tetrahydro-4H-pyrazolo[1,5-a][1,4]diazepine-2-carboxamide] | negative impacts on the potency | –
O=C(Nc1ccccc1)c1cc2n(n1)CCCN(C(=O)c1ccncn1)C2 [Compound 1s, N-phenyl-5-(pyrimidine-4-carbonyl)-5,6,7,8-tetrahydro-4H-pyrazolo[1,5-a][1,4]diazepine-2-carboxamide] | complete loss of potency | –
Cc1ccc(C(=O)N2CCCn3nc(C(=O)Nc4ccccc4)cc3C2)o1 [Compound 1p, 5-(5-Methylfuran-2-carbonyl)-N-phenyl-5,6,7,8-tetrahydro-4H-pyrazolo[1,5-a][1,4]diazepine-2-carboxamide] | loss of activity | –
Cc1cc[nH]c1C(=O)N1CCCn2nc(C(=O)Nc3ccccc3)cc2C1 [Compound 1d, 5-(3-Methyl-1H-pyrrole-2-carbonyl)-N-phenyl-5,6,7,8-tetrahydro-4H-pyrazolo[1,5-a][1,4]diazepine-2-carboxamide] | complete loss of potency | –
5-(4-Methyloxazole-5-carbonyl)-N-phenyl-5,6,7,8-tetrahydro-4H-pyrazolo[1,5-a][1,4]diazepine-2-carboxamide [Compound 1r] | complete loss of potency | –
CC(C)C(=O)OC[C@@]1(CCl)O[C@@H](n2ccc(N)nc2=O)[C@H](F)[C@@H]1OC(=O)C(C)C [ALS-8176, 4'-chloromethyl-2'-deoxy-3',5'-di-o-isobutyryl-2'-fluorocytidine] | – | effect on viral load and disease symptoms (RSV): decreased viral load and disease symptoms
Cc1c(C(=O)N2CCCn3nc(C(=O)Nc4ccccc4)cc3C2)oc2ccccc12 [Compound 1i, 5-(3-Methylbenzofuran-2-carbonyl)-N-phenyl-5,6,7,8-tetrahydro-4H-pyrazolo[1,5-a][1,4]diazepine-2-carboxamide] | complete loss of potency | –
Cc1ccoc1CN1CCCn2nc(C(=O)Nc3ccccc3)cc2C1 [Compound 1t, 5-((3-Methylfuran-2-yl)methyl)-N-phenyl-5,6,7,8-tetrahydro-4H-pyrazolo[1,5-a][1,4]diazepine-2-carboxamide] | complete loss of bioactivity | –
Cc1ccoc1C(=O)N1CCCn2nc(C(=O)Nc3ccc(F)cc3)cc2C1 [Compound 8i, N-(4-fluorophenyl)-5-(3-methylfuran-2-carbonyl)-5,6,7,8-tetrahydro-4H-pyrazolo[1,5-a][1,4]diazepine-2-carboxamide] | nanomolar potency | –
Cc1ccoc1C(=O)N1CCCn2nc(C(=O)Nc3ccc(F)cc3F)cc2C1 [Compound 8c, N-(2,4-difluorophenyl)-5-(3-methylfuran-2-carbonyl)-5,6,7,8-tetrahydro-4H-pyrazolo[1,5-a][1,4]diazepine-2-carboxamide] | – | improvement in antiviral potency compared to hit compound 1a [1]: approximately 4 fold
O=C(Nc1ccccc1)c1cc2n(n1)CCCN(C(=O)c1occc1-c1ccccc1)C2 [Compound 1h, N-phenyl-5-(3-phenylfuran-2-carbonyl)-5,6,7,8-tetrahydro-4H-pyrazolo[1,5-a][1,4]diazepine-2-carboxamide] | lacked appreciable inhibitory activity | –

— publication PMC5504085 (Journal of medicinal chemistry, 2017)
